Several values for one entry are separate records, joined by “and”; a condition that tells them apart may be missing. Equal entries are not always repeated. Toxic doses and inconclusive results are not listed.
System: BDF1 mice, P815 leukemia ip, survival T/C
Test: NCI In Vivo Anticancer Drug Screen. Data for tumor model P815 Mast Cell Leukemia (Ascitic) (intraperitoneal) in B6D2F1 (BDF1) mice
Conditions: higher = longer survival
Description: The antitumor activity of compounds was measured in mice bearing transplantable tumors. Survival or tumor size were measured and the results are expressed as the measurement made in the treated group (T) divided by the measurement made in the vehicle treated control group (C). The tumor model used in this assay is P815 Mast Cell Leukemia (Ascitic) (intraperitoneal) in B6D2F1 (BDF1) mice

[1] = endpoint: survival time, mean or median, dose: 25.0 mg/kg/injection, schedule: Q01DX010 (ip), vehicle: saline
[2] = endpoint: survival time, mean or median, dose: 50.0 mg/kg/injection, schedule: Q01DX010 (ip), vehicle: saline
[3] = endpoint: survival time, mean or median, dose: 100.0 mg/kg/injection, schedule: Q01DX010 (ip), vehicle: saline

O=C(Nc1cccc(NC(=O)Nc2cccc(C3=NCCN3)c2)c1)Nc1cccc(C2=NCCN2)c1
T/C (endpoint: survival time, mean or median, dose: 27.0 mg/kg/injection, schedule: Q01DX010 (ip), vehicle: saline): 121 % of control | T/C (endpoint: survival time, mean or median, dose: 40.0 mg/kg/injection, schedule: Q01DX010 (ip), vehicle: saline): 117 % of control | T/C (endpoint: survival time, mean or median, dose: 66.0 mg/kg/injection, schedule: Q01DX010 (ip), vehicle: saline): 113 % of control | T/C (endpoint: survival time, mean or median, dose: 90.0 mg/kg/injection, schedule: Q01DX010 (ip), vehicle: saline): 86 % of control

COc1cc([C@@H]2c3cc4c(cc3[C@H](O)[C@H]3COC(=O)[C@@H]23)OCO4)cc(OC)c1OC
T/C (endpoint: survival time, mean or median, dose: 10.0 mg/kg/injection, schedule: Q01DX015 (ip), vehicle: carboxymethylcellulose (CMC)): 112 % of control | T/C (endpoint: survival time, mean or median, dose: 20.0 mg/kg/injection, schedule: Q01DX015 (ip), vehicle: carboxymethylcellulose (CMC)): 150 % of control | T/C (endpoint: survival time, mean or median, dose: 40.0 mg/kg/injection, schedule: Q01DX015 (ip), vehicle: carboxymethylcellulose (CMC)): 167 % of control

NC(=O)c1[nH]nc(C2OC(CO)C(O)C2O)c1O (stereo not given)
T/C (endpoint: median survival time, dose: 1.56 mg/kg/injection, schedule: Q04DX003 (ip), vehicle: saline): 102 % of control | T/C (endpoint: median survival time, dose: 2.59 mg/kg/injection, schedule: Q04DX003 (ip), vehicle: saline): 104 % of control | T/C (endpoint: median survival time, dose: 4.32 mg/kg/injection, schedule: Q04DX003 (ip), vehicle: saline): 103 % of control | T/C (endpoint: median survival time, dose: 7.2 mg/kg/injection, schedule: Q04DX003 (ip), vehicle: saline): 121 % of control | T/C (endpoint: median survival time, dose: 12.0 mg/kg/injection, schedule: Q04DX003 (ip), vehicle: saline): 114 % of control | T/C (endpoint: median survival time, dose: 20.0 mg/kg/injection, schedule: Q04DX003 (ip), vehicle: saline): 104 % of control

NC(=O)N(CCCl)N=O
T/C (endpoint: survival time, mean or median, dose: 0.5 mg/kg/injection, schedule: Q01DX010 (ip), vehicle: saline): 175 % of control | T/C (endpoint: survival time, mean or median, dose: 1.0 mg/kg/injection, schedule: Q01DX010 (ip), vehicle: saline): 210 % of control | T/C (endpoint: survival time, mean or median, dose: 2.0 mg/kg/injection, schedule: Q01DX010 (ip), vehicle: saline): 100 % of control | T/C (endpoint: survival time, mean or median, dose: 4.0 mg/kg/injection, schedule: Q01DX010 (ip), vehicle: saline): 105 % of control

O=C(Nc1ccc(C2=NCCN2)cc1)c1ccc(C(=O)Nc2ccc(C3=NCCN3)cc2)c(Cl)c1
T/C (endpoint: survival time, mean or median, dose: 1.5 mg/kg/injection, schedule: Q01DX015 (ip), vehicle: carboxymethylcellulose (CMC)): 109 % of control | T/C (endpoint: survival time, mean or median, dose: 6.0 mg/kg/injection, schedule: Q01DX015 (ip), vehicle: carboxymethylcellulose (CMC)): 182 % of control | T/C (endpoint: survival time, mean or median, dose: 9.0 mg/kg/injection, schedule: Q01DX015 (ip), vehicle: carboxymethylcellulose (CMC)): 176 % of control

O=C(Nc1ccc(C2=NCCN2)cc1)c1ccc(C(=O)Nc2ccc(C3=NCCN3)cc2)c([N+](=O)[O-])c1
T/C (endpoint: survival time, mean or median, dose: 6.0 mg/kg/injection, schedule: Q01DX010 (ip), vehicle: saline): 171 % of control | T/C (endpoint: survival time, mean or median, dose: 8.0 mg/kg/injection, schedule: Q01DX010 (ip), vehicle: saline): 284 % of control | T/C (endpoint: survival time, mean or median, dose: 12.0 mg/kg/injection, schedule: Q01DX010 (ip), vehicle: saline): 92 % of control

NC12CC3CC(CC(C3)C1)C2
T/C [1]: 100 % of control | T/C [2]: 100 % of control | T/C [3]: 105 % of control

O=C(Nc1ccc(C2=NCCN2)cc1)c1ccc(C(=O)Nc2ccc(C3=NCCN3)cc2)c(NC(=O)c2ccc(C(=O)Nc3cc(C(=O)Nc4ccc(C5=NCCN5)cc4)ccc3C(=O)Nc3ccc(C4=NCCN4)cc3)cc2)c1
T/C [1]: 95 % of control | T/C [2]: 108 % of control | T/C [3]: 95 % of control | T/C (endpoint: survival time, mean or median, dose: 200.0 mg/kg/injection, schedule: Q01DX010 (ip), vehicle: saline): 104 % of control

Clc1ncnc2nc[nH]c12
T/C (endpoint: survival time, mean or median, dose: 7.5 mg/kg/injection, schedule: Q01DX010 (ip), vehicle: saline): 100 % of control | T/C (endpoint: survival time, mean or median, dose: 9.5 mg/kg/injection, schedule: Q01DX010 (ip), vehicle: saline): 100 % of control | T/C (endpoint: survival time, mean or median, dose: 15.0 mg/kg/injection, schedule: Q01DX010 (ip), vehicle: saline): 100 % of control | T/C (endpoint: survival time, mean or median, dose: 30.0 mg/kg/injection, schedule: Q01DX010 (ip), vehicle: saline): 100 % of control | T/C (endpoint: survival time, mean or median, dose: 60.0 mg/kg/injection, schedule: Q01DX010 (ip), vehicle: saline): 104 % of control and 109 % of control

Cc1c(O)ccc(=O)n1O
T/C (endpoint: survival time, mean or median, dose: 49.0 mg/kg/injection, schedule: Q01DX015 (ip), vehicle: other): 95 % of control | T/C (endpoint: survival time, mean or median, dose: 73.0 mg/kg/injection, schedule: Q01DX015 (ip), vehicle: other): 113 % of control | T/C (endpoint: survival time, mean or median, dose: 110.0 mg/kg/injection, schedule: Q01DX015 (ip), vehicle: other): 105 % of control | T/C (endpoint: survival time, mean or median, dose: 165.0 mg/kg/injection, schedule: Q01DX015 (ip), vehicle: other): 100 % of control | T/C (endpoint: survival time, mean or median, dose: 247.0 mg/kg/injection, schedule: Q01DX015 (ip), vehicle: other): 95 % of control

C1CN1c1nc(N2CC2)nc(N2CC2)n1
T/C (endpoint: survival time, mean or median, dose: 0.13 mg/kg/injection, schedule: Q01DX010 (ip), vehicle: saline): 111 % of control | T/C (endpoint: survival time, mean or median, dose: 0.25 mg/kg/injection, schedule: Q01DX010 (ip), vehicle: saline): 111 % of control | T/C (endpoint: survival time, mean or median, dose: 125.0 micrograms/kg/injection, schedule: Q01DX010 (ip), vehicle: saline): 100 % of control | T/C (endpoint: survival time, mean or median, dose: 250.0 micrograms/kg/injection, schedule: Q01DX010 (ip), vehicle: saline): 105 % of control | T/C (endpoint: survival time, mean or median, dose: 1000.0 micrograms/kg/injection, schedule: Q01DX010 (ip), vehicle: saline): 94 % of control

Reference: PubChem BioAssay AID318 (DTP/NCI, 2004)
